pIC50: −log10 of the molar value.
Molecular target: N-lysine methyltransferase SMYD2 (Homo sapiens, UniProt Q9NRG4)
Test: Scintillation Proximity Assay (SPA) for Detection of SMYD2 Enzymatic Inhibition
Conditions: pH 9
Protocol: To this end, 100-fold concentrated compound solutions (in DMSO) were previously prepared by serial dilution (1:3.4) of 2 mM stocks in a clear low volume 384-well source microtiter plate (Greiner Bio-One), from which 50 nl of compound solutions were transferred into a white low volume test microtiter plate from the same supplier. […] The samples were then incubated for 15 min at 22° C. to allow pre-equilibration of the putative enzyme-inhibitor complexes before the start of the methylation reaction, which was initiated by the addition of 2.5 μl 2-fold concentrated solution (in assay buffer) of titrated S-Adenosyl-L-Methionine (3H-SAM, Perkin Elmer, final concentration: 60 nM) and p53 Peptide substrate (final concentration: 1.0 μM). The resulting mixture (5 μl final volume) was shortly centrifuged (2 min., 1500 rpm) and incubated at 22° C. during 30 min.

Chain of N-lysine methyltransferase SMYD2 (Q9NRG4 whole entry): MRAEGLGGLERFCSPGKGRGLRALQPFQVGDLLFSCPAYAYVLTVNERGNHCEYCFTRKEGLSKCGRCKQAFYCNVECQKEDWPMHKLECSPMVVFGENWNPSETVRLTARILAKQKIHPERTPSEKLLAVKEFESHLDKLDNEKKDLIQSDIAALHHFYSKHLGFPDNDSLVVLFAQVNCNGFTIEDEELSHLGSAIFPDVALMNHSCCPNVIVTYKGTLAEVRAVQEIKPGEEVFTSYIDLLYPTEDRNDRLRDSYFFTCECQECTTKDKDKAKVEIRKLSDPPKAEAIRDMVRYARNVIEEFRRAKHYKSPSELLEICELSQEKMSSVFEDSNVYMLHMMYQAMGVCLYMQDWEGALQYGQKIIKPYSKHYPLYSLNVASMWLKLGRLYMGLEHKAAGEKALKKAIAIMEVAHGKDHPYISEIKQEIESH

- pIC50: 6.64
SMILES: CCN(C(=O)[C@@H](C)NC)C1CN(/C(=N\C#N)Nc2cccc(OC(F)F)c2)N=C1c1ccc(Cl)c(C)c1 (stereo partly specified) [US10023539, Example 37]

— BindingDB's records for patent US10023539 (Bayer Pharma Aktiengesellschaft, 2018)
